Data as given in publication PMC8728441, “Biosynthesis of the redox cofactor mycofactocin is controlled by the transcriptional regulator MftR and induced by long-chain acyl-CoA species” (The Journal of Biological Chemistry, 2021).

Experiments:
MftR–Omft complex = assay: Competitive EMSA screen for effectors of MftR; format: binding, Mycobacterium smegmatis mc^2155; settings: 6-FAM Omft 0.5 μM, MftR 5 μM, effectors 100 μM
Experimental: Next, we assessed which metabolites activate MftR and thus could induce MFT production. To do so, we carried out competitive EMSAs where FAM-labeled Omft and MftR were incubated in the presence of potential effectors. We initially chose our effectors based on cholesterol catabolism, a process that putatively includes MFT biosynthetic genes ([38]). […] Knowing that TFRs have a propensity to be activated by fatty acyl-CoAs ([20]), we expanded our effector screening to include short-chain, medium-chain, and long-chain acyl-CoAs.
Figure 4 Effectors of MftR.A, an EMSA used to screen effectors of MftR. The 6-FAM–labeled Omft region (0.5 μM) was incubated with the MftR (5 μM) in the absence or the presence of effectors (100 μM). Protein–DNA complexes were separated by electrophoresis on 5% polyacrylamide gel. […] B, a representative isothermal titration calorimetry thermogram for the binding of the oleoyl-CoA to MftR regulator (blue) and the control of oleoyl-CoA into buffer (red). Each peak corresponds to the injection of 2.22 μl of 250 μM oleoyl-CoA into the cell containing 16 μM MftR or buffer. The integrated thermogram (blue dots) was fitted to a single-site binding model (black line) to determine the Kd. […] C, a bar graph depicting the ITC measured Kds for various acyl-CoAs. Bars represent the mean of three independent experiments, and the error bars represent the standard deviation of the experiments. 6-FAM, 6-carboxyfluorescein; ITC, isothermal titration calorimetry; Omft, mft operator.
His-tagged MftR was used to assess the protein binding to Pmft–MftA promoter fragment. DNA was mixed with increasing concentrations of the MftR protein in the reaction buffer (50 mM Hepes, 50 mM NaCl 0.1 mM EDTA, and pH 7.5) and incubated at room temperature for 10 min. The reactions were resolved by electrophoresis on a 5% (v/v) nondenaturing polyacrylamide gel in 1× Tris/borate/EDTA buffer at 200 V for 20 min on ice. Prior to the analysis, the gel was prerun for 30 min at 150 V on ice. Results were visualized by GelRed and recorded using Azure Biosystems 600 imaging system.

[1] = tested on: mft BGC (MftA–mCherry reporter); assay: Growth curve assays with Msmeg/Pmft–pCherry; format: cell-based, Mycobacterium smegmatis mc^2155
Experimental: To directly establish that oleoyl-CoA induces MFT biosynthesis in vivo, a colony dilution experiment was carried out using Msmeg transformed with Pmft–pCherry grown on Middlebrook 7H9 (7H9) supplemented with glucose or oleic acid (OA). We used OA in the growth media since it is well known that bacterial fatty acid shuttle systems convert free fatty acids to the corresponding acyl-CoAs and since Msmeg encodes for at least two known fatty acid transporters ([48], [49]). […] To assess when this occurs in real time, growth curve assays with Msmeg/Pmft–pCherry were carried out. […] We observed the same effect when OA was added to the media after 12 h of incubation. Next, we determined if MFT induction is dependent on the concentration of OA. We carried out a titration series of growth curves where 7H9 media were supplemented with 0.05% w/v glucose and 0.01, 0.02, 0.05, or 0.1% w/v OA. […] However, in general, increasing concentrations of OA had little effect on the overall production of the MftA–mCherry fusion. The lack of immediate production of MftA–mCherry after the addition of OA and the concentration independence is perplexing. […] Rather, we expect that a subtler and unknown mechanism is at play.
Figure 7 Growth curve assays with Msmeg/Pmft–pCherry.A, absorbance at 600 nm measurements for the 7H9 media supplemented with 0.1% tyloxapol, 50 μg/ml hygromycin, and glucose and/or oleic acid (OA) as carbon sources. Concentrations of carbon sources were glucose only (0.1% w/v), OA only (0.1% w/v), and glucose/OA (0.05% w/v each) where OA was added after 12 h (blue arrow). B, corresponding fluorescence intensities (excitation of 585 nm/emission of 612 nm) of Msmeg/Pmft–pCherry cultures described in A. C, absorbance at 600 nm measurements for dose-dependent addition of OA to the 7H9 media supplemented with 0.05% w/v glucose and 0.01, 0.02, 0.05, 0.1% w/v of OA. D, corresponding fluorescence intensities of Msmeg/Pmft–pCherry cultures described in C. 7H9, Middlebrook 7H9; Msmeg, Mycobacterium smegmatis mc^2155; Pmft, mft promoter.
For fluorescence-based assays, a single Msmeg colony harboring Pmft–pCherry was used to inoculate 25 ml of 7H9 media supplemented with 0.1% tyloxapol, 0.1% w/v glycerol, 50 μg/ml hygromycin, and 0.1% w/v glucose. For cultures containing OA only, 0.1% w/v OA was used. […] The overnight culture was used to inoculate 7H9 media to an absorbance of 0.05 at 600 nm (1 cm pathlength) with carbon sources supplemented as described previously. […] Aliquots were taken every 2 h, and absorbance at 600 nm values were measured. To track the expression of the Pmft–pCherry fusion, fluorescence measurements were taken on a Cary Fluorimeter every 2 h using an excitation of 585 nm and an emission of 612 nm.

[2] = tested on: mft BGC (MftA–mCherry reporter); assay: Spot test growth analysis with Pmft–pCherry reporter; format: cell-based, Mycobacterium smegmatis mc^2155; settings: 7H9 with 0.05% w/v each glucose and OA, compared with glucose alone
Experimental: To directly establish that oleoyl-CoA induces MFT biosynthesis in vivo, a colony dilution experiment was carried out using Msmeg transformed with Pmft–pCherry grown on Middlebrook 7H9 (7H9) supplemented with glucose or oleic acid (OA). We used OA in the growth media since it is well known that bacterial fatty acid shuttle systems convert free fatty acids to the corresponding acyl-CoAs and since Msmeg encodes for at least two known fatty acid transporters ([48], [49]). […] To assess when this occurs in real time, growth curve assays with Msmeg/Pmft–pCherry were carried out. […] We observed the same effect when OA was added to the media after 12 h of incubation. Next, we determined if MFT induction is dependent on the concentration of OA. We carried out a titration series of growth curves where 7H9 media were supplemented with 0.05% w/v glucose and 0.01, 0.02, 0.05, or 0.1% w/v OA. […]
Figure 6 Induction of MFT biosynthesis by oleoyl-CoA in vivo. […] Fluorescence images were obtained simultaneously from two different petri dishes using 585 nm excitation and 635 nm emission wavelengths. […]
A single time point growth assay was standardized for the growth of Msmeg on 7H9 agar plates with various carbon sources supplemented. […] The absorbance was measured and converted to colony-forming units (CFUs) using the standard 3.13 × 10^7 CFU·ml^−1·absorbance^−1 conversion factor ([58]). […]

MftR (WT) = MftR (WT) (Mycolicibacterium smegmatis, UniProt A0QSB5); assay: ITC binding of acyl-CoAs to MftR; set-up: species or system Mycobacterium smegmatis mc^2155
MftR (WT), sequence (A0QSB5 entry or part of it): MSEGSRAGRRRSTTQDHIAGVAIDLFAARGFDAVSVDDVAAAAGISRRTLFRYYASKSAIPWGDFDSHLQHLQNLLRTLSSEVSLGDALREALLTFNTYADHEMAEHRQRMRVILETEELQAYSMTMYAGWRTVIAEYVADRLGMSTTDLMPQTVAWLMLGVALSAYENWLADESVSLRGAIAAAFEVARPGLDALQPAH
Experimental: ITC was performed using TA Nano ITC. MftR was loaded in the sample cell at the concentration of 16 and 250 μM acyl-CoAs (C12–C18) loaded in the syringe. To minimize the effect of buffer mismatch, the stock concentration of acyl-CoAs was prepared using ITC buffer (50 mM Hepes, 50 mM NaCl, and pH 7.5), and the pH was adjusted to within 0.05 units. In addition, MftR was buffer exchanged into ITC buffer using a PD-10 column (GE Life Sciences). The volume of the titrant added at each injection into the sample cell was 2.22 μl. The time interval between the successive injections was 180 s. The temperature of the cell was kept at 25 °C. The data obtained were fit by independent one-site model using NanoAnalyze Data Analysis, version 3.8.0, that was provided with the instrument.

With `CC(C)(COP(=O)(O)OP(=O)(O)OC[C@H]1O[C@@H](n2cnc3c(N)ncnc32)[C@H](O)[C@@H]1OP(=O)(O)O)[C@@H](O)C(=O)NCCC(=O)NCCS` [CoA] as the molecule, how does the “disruption of the MftR–Omft complex (DNA release)” value (from here on “disruption”) (MftR–Omft complex) read?
Its value is “did not disrupt the MftR–Omft complex”.

With `CCCCCCCC/C=C\CCCCCCCC(=O)O` [OA, oleic acid] as the molecule, how does the “fluorescence intensity in OA titration series” value ([1]; 0.05% w/v OA with 0.05% w/v glucose, within 40 h) read?
The value was “highest fluorescence intensity”.

And the “fluorescence intensity compared with the control” value ([1]; 0.1% OA only, cultures at nearly the same absorbance)?
Its value is “nearly three times”.

What about the fluorescence intensity ([1]; OA added to the media after 12 h of incubation (glucose/OA 0.05% w/v each)) of the same molecule?
The fluorescence intensity was “same effect”.

What about the “overall production of the MftA–mCherry fusion” value ([1]; increasing OA 0.01, 0.02, 0.05, 0.1% w/v with 0.05% w/v glucose) of the same molecule?
Its value is “little effect”.

What about the “fluorescence intensity of colonies” value [2] of the same molecule?
Its value is “starkly increased”.

With `CC(=O)CC(=O)SCCNC(=O)CCNC(=O)[C@H](O)C(C)(C)COP(=O)(O)OP(=O)(O)OC[C@H]1O[C@@H](n2cnc3c(N)ncnc32)[C@H](O)[C@@H]1OP(=O)(O)O` [acetoacetyl-CoA] as the molecule, how does the “disruption” value (MftR–Omft complex) read?
Its value is “did not observe DNA release”.

Which “disruption” value (MftR–Omft complex) does the source give for `CC(C)CCC[C@@H](C)[C@H]1CC[C@H]2[C@@H]3CC=C4C[C@@H](O)CC[C@]4(C)[C@H]3CC[C@]12C` [cholesterol] here?
The value was “did not observe DNA release”.

How did the “decrease in binding affinity as compared with oleoyl-CoA” value (MftR (WT); ITC, WT MftR) turn out when `CCCCCCCCCCCC(=O)SCCNC(=O)CCNC(=O)[C@H](O)C(C)(C)COP(=O)(O)OP(=O)(O)OC[C@H]1O[C@@H](n2cnc3c(N)ncnc32)[C@H](O)[C@@H]1OP(=O)(O)O` [lauroyl-CoA] was run?
The value was about 10 fold.

With `CCCCCCCCCCCCCC(=O)SCCNC(=O)CCNC(=O)[C@H](O)C(C)(C)COP(=O)(O)OP(=O)(O)OC[C@H]1O[C@@H](n2cnc3c(N)ncnc32)[C@H](O)[C@@H]1OP(=O)(O)O` [myristoyl-CoA] as the molecule, how does the “disruption” value (MftR–Omft complex) read?
Its value is “disrupted the MftR–Omft complex”.

For `CCCCCCCCCCCCCCCC(=O)SCCNC(=O)CCNC(=O)[C@H](O)C(C)(C)COP(=O)(O)OP(=O)(O)OC[C@H]1O[C@@H](n2cnc3c(N)ncnc32)[C@H](O)[C@@H]1OP(=O)(O)O` [palmitoyl-CoA], which Kd (MftR (WT)) is on record?
The Kd was 2 to 4 µM.

Which “disruption” value (MftR–Omft complex) does the source give for `CCC(=O)SCCNC(=O)CCNC(=O)[C@H](O)C(C)(C)COP(=O)(O)OP(=O)(O)OC[C@H]1O[C@@H](n2cnc3c(N)ncnc32)[C@H](O)[C@@H]1OP(=O)(O)O` [propionyl-CoA] here?
The value was “did not observe DNA release”.

Which Kd (MftR (WT)) does the source give for `CCCCCCCCCCCCCCCCCC(=O)SCCNC(=O)CCNC(=O)[C@H](O)C(C)(C)COP(=O)(O)OP(=O)(O)OC[C@H]1O[C@@H](n2cnc3c(N)ncnc32)[C@H](O)[C@@H]1OP(=O)(O)O` [steroyl-CoA] here?
Its Kd is 2 to 4 µM.

With succinyl-CoA as the molecule, how does the “disruption” value (MftR–Omft complex) read?
The value was “did not observe DNA release”.
